Results as given in patent US20250352555A1, “METHOD OF INCREASING IMMUNE CELL ACTIVATION AND/OR TREATING CANCER USING DIBENZOXAZEPINONES” (VASCULAR THERAPEUTICS PTY LTD, priority 2022, published 2025).
Where “and” joins values, the source holds several entries; their conditions need not be identical. Equal values may be shown once.

Experiments:
[1] = tested on: MeWo cells; test: Cell morphology study, MeWo; type: cell-based, human; conditions: 1 μM, 24 h
Experimental: Cell morphology studies. Cells were grown in medium containing 10% FBS in 4-well chamber slides. The following day the cells were incubated in medium containing 10% FBS and vehicle, BT2 or SCH772984 at 1 μM for 24 h, then fixed with 4% paraformaldehyde solution for 15 min. After washing briefly in PBS the cells were stained with hemotoxylin and eosin. The slides were scanned using an Aperio ScanScope XT slide scanner (Leica Biosystems, Mt Waverley, Vic, Australia) and images were captured using ImageScope software (Leica Biosystems).
The morphology of A375 and MeWo cells exposed to 1 μM of BT2 or SCH772984 for 24 h was also assessed.

[2] = tested on: Jurkat T cells; test: RNA-seq of Jurkat T cells; type: cell-based, human
Experimental: RNA-seq and bioinformatics analysis. Jurkat T cells were grown to confluence in 100 mm plates in complete medium and incubated with 10 μM BT2 or vehicle for 4 h. Total RNA was extracted using the RNeasy Mini Kit (Qiagen, cat. no. 74004) with modification. Briefly, cells were washed twice with pre-cooled 1×PBS and TRIzol reagent (Thermo Fisher Scientific cat. no. 15596026) was added to lyse the cells. Chloroform was added to the mixture before microfuge centrifugation at 13000 rpm for 15 min at 4° C. The upper aqueous layer containing total RNA was transferred to fresh microtubes, and isopropanol was added and loaded into RNeasy columns. Columns were washed with buffers RW1 and RPE. Total RNA was eluted from the column using ribonuclease-free water. Samples were submitted to the UNSW Ramaciotti Centre for Genomics for TruSeq Stranded mRNA-seq preparation and sequencing by One NextSeq 500 1×75 bp high-output flow cell with data output up to 400 M reads. Quality control of samples was set at >80% higher than Q30 at 1×75 bp.
RNA-seq reads were first assessed for quality using the tool FastQC (v0.11.8) www.bioinformatics.babraham.ac.uk/projects/fastqc/). The tool Salmon was used for quantifying transcript abundance from RNA-seq reads (Patro et al., 2017). The R package DESeq2 that incorporates a method for differential analysis of count data was then used to identify differentially expressed genes across specific comparisons (Love et al., 2014). This package was also used to perform principal component analysis. […] The ggplot2 R package was used to prepare bar plots, scatter plots, and density plots. The pheatmap R package was used to generate distance matrices, and clustered heatmaps. DESeq2 output was used to generate a ranked list for input into GSEA Pre-ranked (v6.0.12, Broad Institute) (Subramanian et al., 2005) for pathway analysis against the Curated (Canonical Pathway), Gene Ontology, and Hallmarks gene collections from MSigDb (Liberzon et al., 2015; Liberzon et al., 2011). Ranked scores were calculated by multiplying the sign of the log 2 fold change by the log 10 transformed adjusted p value. […] All immune response related gene sets were selected for display.
To gain insights into BT2's mode of action we conducted next generation RNA sequencing (RNA-seq) with extracts of Jurkat T cells exposed to 10 μM BT2 for 4 h.

SMILES: CCOC(=O)Nc1ccc2c(c1)C(=O)N(CC)c1ccccc1O2 [BT2, (10-ethyl-11-oxo-10,11-dihydro-dibenzo[b,f][1,4]oxazepin-2-yl)-carbamic acid ethyl ester]
- cell morphology [1]: loss of spindle morphology and cell rounding
- ABCA4 gene expression, BT2 ([2]; 10 μM BT2, 4 h, 3 replicates): 96.05 and 85.74 and 106.5
- ACTA2 gene expression, BT2 ([2]; 10 μM BT2, 4 h, 3 replicates): 643.6 and 663.2 and 658.1
- ACTG2 gene expression, BT2 ([2]; 10 μM BT2, 4 h, 3 replicates): 3514 and 3448 and 3526
- ADAT3 gene expression, BT2 Test 1-3 ([2]; 10 μM BT2, 4 h, 3 replicates): 32.66 and 24.79 and 20.09
- ADCYAP1 gene expression, BT2 ([2]; 10 μM BT2, 4 h, 3 replicates): 131.6 and 132.2 and 130.6
- ARHGAP29 gene expression, BT2 ([2]; 10 μM BT2, 4 h, 3 replicates): 550.4 and 556.8 and 506.4
- ATF3 gene expression, BT2 ([2]; 10 μM BT2, 4 h, 3 replicates): 975.9 and 937 and 1003
- BACH2 gene expression, BT2 ([2]; 10 μM BT2, 4 h, 3 replicates): 6174.2608 and 6260 and 6009.3283
- CD248 gene expression, BT2 ([2]; 10 μM BT2, 4 h, 3 replicates): 284.3 and 291.3 and 307.4
- CREB5 gene expression, BT2 ([2]; 10 μM BT2, 4 h, 3 replicates): 179.6 and 175.6 and 152.7
- DMBT1 gene expression, BT2 ([2]; 10 μM BT2, 4 h, 3 replicates): 193.1 and 180.8 and 166.8
- DUSP8 gene expression, BT2 ([2]; 10 μM BT2, 4 h, 3 replicates): 826.1 and 821.3 and 847
- ENPP1 gene expression, BT2 ([2]; 10 μM BT2, 4 h, 3 replicates): 2289 and 2283 and 2244
- EPAS1 gene expression, BT2 ([2]; 10 μM BT2, 4 h, 3 replicates): 332.3 and 428.7 and 372.8
- FAM166A gene expression, BT2 Test 1-3 ([2]; 10 μM BT2, 4 h, 3 replicates): 312.2 and 298.5 and 285.3
- FERMT2 gene expression, BT2 ([2]; 10 μM BT2, 4 h, 3 replicates): 3161.0909 and 3299 and 3249
- FLNC gene expression, BT2 ([2]; 10 μM BT2, 4 h, 3 replicates): 532.1 and 474.2 and 510.4
- GBP1 gene expression, BT2 ([2]; 10 μM BT2, 4 h, 3 replicates): 6844 and 6940 and 6949
- GBP2 gene expression, BT2 ([2]; 10 μM BT2, 4 h, 3 replicates): 343.9 and 332.6 and 320.5
- HIST1H2AC gene expression, BT2 Test 1-3 ([2]; 10 μM BT2, 4 h, 3 replicates): 62.43 and 67.15 and 71.34
- HIST1H2AG gene expression, BT2 Test 1-3 ([2]; 10 μM BT2, 4 h, 3 replicates): 51.87 and 40.29 and 74.35
- HIST2H2BE gene expression, BT2 Test 1-3 ([2]; 10 μM BT2, 4 h, 3 replicates): 35.54 and 54.75 and 51.24
- IL2RA gene expression, BT2 ([2]; 10 μM BT2, 4 h, 3 replicates): 168.1 and 193.2 and 169.8
- JUN gene expression, BT2 ([2]; 10 μM BT2, 4 h, 3 replicates): 4079.3537 and 4087 and 4015
- JUND gene expression, BT2 ([2]; 10 μM BT2, 4 h, 3 replicates): 7851.3391 and 7882 and 7703
- KCNMB1 gene expression, BT2 ([2]; 10 μM BT2, 4 h, 3 replicates): 1036.4075 and 994.8 and 1082
- MAF gene expression, BT2 Test 1-3 ([2]; 10 μM BT2, 4 h, 3 replicates): 49.95 and 50.62 and 48.23
- MYL4 gene expression, BT2 ([2]; 10 μM BT2, 4 h, 3 replicates): 896.2 and 889.4 and 904.3
- NPAS4 gene expression, BT2 ([2]; 10 μM BT2, 4 h, 3 replicates): 228.6 and 253.1 and 292.4
- NTN1 gene expression, BT2 ([2]; 10 μM BT2, 4 h, 3 replicates): 0 and 193.2 and 146.7
- PRKCE gene expression, BT2 ([2]; 10 μM BT2, 4 h, 3 replicates): 1433 and 1537 and 1488
- PRRT1 gene expression, BT2 Test 1-3 ([2]; 10 μM BT2, 4 h, 3 replicates): 20.17 and 22.73 and 60.28
- SIRPB2 gene expression, BT2 ([2]; 10 μM BT2, 4 h, 3 replicates): 112.4 and 120.9 and 128.6
- SPECC1L-ADORA2A gene expression, BT2 ([2]; 10 μM BT2, 4 h, 3 replicates): 209.4 and 316.1 and 206
- TEAD3 gene expression, BT2 ([2]; 10 μM BT2, 4 h, 3 replicates): 269.9 and 243.8 and 226.1
- TIMP3 gene expression, BT2 ([2]; 10 μM BT2, 4 h, 3 replicates): 202.7 and 212.8 and 228.1
- TUBA1A gene expression, BT2 Test 1-3 ([2]; 10 μM BT2, 4 h, 3 replicates): 4998 and 5147 and 5169
- TUBA1B gene expression, BT2 Test 1-3 ([2]; 10 μM BT2, 4 h, 3 replicates): 50484.2833 and 49034.778 and 49379.7789
- TUBA1C gene expression, BT2 Test 1-3 ([2]; 10 μM BT2, 4 h, 3 replicates): 9420 and 9004 and 9493
- TUBA4A gene expression, BT2 Test 1-3 ([2]; 10 μM BT2, 4 h, 3 replicates): 33.62 and 39.26 and 48.23
- TUBB2A gene expression, BT2 Test 1-3 ([2]; 10 μM BT2, 4 h, 3 replicates): 599.4 and 644.6 and 638
- TUBB3 gene expression, BT2 Test 1-3 ([2]; 10 μM BT2, 4 h, 3 replicates): 651.2 and 705.6 and 639
- TUBB4B gene expression, BT2 Test 1-3 ([2]; 10 μM BT2, 4 h, 3 replicates): 6034 and 5953 and 6048
- ZYX gene expression, BT2 ([2]; 10 μM BT2, 4 h, 3 replicates): 3059 and 3209 and 3141
- ABCA4 log2Fold Change ([2]; 10 μM BT2 vs vehicle, 4 h): 2.991
- ACTA2 log2Fold Change ([2]; 10 μM BT2 vs vehicle, 4 h): 1.228
- ACTG2 log2Fold Change ([2]; 10 μM BT2 vs vehicle, 4 h): 2.581
- ADAT3 log2Fold Change ([2]; 10 μM BT2 vs vehicle, 4 h): −1.31
- ADCYAP1 log2Fold Change ([2]; 10 μM BT2 vs vehicle, 4 h): 1.242
- ARHGAP29 log2Fold Change ([2]; 10 μM BT2 vs vehicle, 4 h): 1.497
- ATF3 log2Fold Change ([2]; 10 μM BT2 vs vehicle, 4 h): 1.019
- BACH2 log2Fold Change ([2]; 10 μM BT2 vs vehicle, 4 h): 1.126
- CD248 log2Fold Change ([2]; 10 μM BT2 vs vehicle, 4 h): 2.579
- CREB5 log2Fold Change ([2]; 10 μM BT2 vs vehicle, 4 h): 1.577
- DMBT1 log2Fold Change ([2]; 10 μM BT2 vs vehicle, 4 h): 1.424
- DUSP8 log2Fold Change ([2]; 10 μM BT2 vs vehicle, 4 h): 3.811
- ENPP1 log2Fold Change ([2]; 10 μM BT2 vs vehicle, 4 h): 2.594
- EPAS1 log2Fold Change ([2]; 10 μM BT2 vs vehicle, 4 h): 1.187
- FAM166A log2Fold Change ([2]; 10 μM BT2 vs vehicle, 4 h): −1.443
- FERMT2 log2Fold Change ([2]; 10 μM BT2 vs vehicle, 4 h): 1.127
- FLNC log2Fold Change ([2]; 10 μM BT2 vs vehicle, 4 h): 1.158
- GBP1 log2Fold Change ([2]; 10 μM BT2 vs vehicle, 4 h): 1.317
- GBP2 log2Fold Change ([2]; 10 μM BT2 vs vehicle, 4 h): 1.999
- HIST1H2AC log2Fold Change ([2]; 10 μM BT2 vs vehicle, 4 h): −1.445
- HIST1H2AG log2Fold Change ([2]; 10 μM BT2 vs vehicle, 4 h): −1.417
- HIST2H2BE log2Fold Change ([2]; 10 μM BT2 vs vehicle, 4 h): −1.273
- IL2RA log2Fold Change ([2]; 10 μM BT2 vs vehicle, 4 h): 2.06
- JUN log2Fold Change ([2]; 10 μM BT2 vs vehicle, 4 h): 2.561
- JUND log2Fold Change ([2]; 10 μM BT2 vs vehicle, 4 h): 1.29
- KCNMB1 log2Fold Change ([2]; 10 μM BT2 vs vehicle, 4 h): 1.455
- MAF log2Fold Change ([2]; 10 μM BT2 vs vehicle, 4 h): −1.032
- MYL4 log2Fold Change ([2]; 10 μM BT2 vs vehicle, 4 h): 2.052
- NPAS4 log2Fold Change ([2]; 10 μM BT2 vs vehicle, 4 h): 1.211
- NTN1 log2Fold Change ([2]; 10 μM BT2 vs vehicle, 4 h): 6.501
- PRKCE log2Fold Change ([2]; 10 μM BT2 vs vehicle, 4 h): 1.177
- PRRT1 log2Fold Change ([2]; 10 μM BT2 vs vehicle, 4 h): −1.322
- SIRPB2 log2Fold Change ([2]; 10 μM BT2 vs vehicle, 4 h): 1.912
- SPECC1L-ADORA2A log2Fold Change ([2]; 10 μM BT2 vs vehicle, 4 h): 1.096
- TEAD3 log2Fold Change ([2]; 10 μM BT2 vs vehicle, 4 h): 1.133
- TIMP3 log2Fold Change ([2]; 10 μM BT2 vs vehicle, 4 h): 1.85
- TUBA1A log2Fold Change ([2]; 10 μM BT2 vs vehicle, 4 h): −1.19
- TUBA1B log2Fold Change ([2]; 10 μM BT2 vs vehicle, 4 h): −1.394
- TUBA1C log2Fold Change ([2]; 10 μM BT2 vs vehicle, 4 h): −1.121
- TUBA4A log2Fold Change ([2]; 10 μM BT2 vs vehicle, 4 h): −1.253
- TUBB2A log2Fold Change ([2]; 10 μM BT2 vs vehicle, 4 h): −1.005
- TUBB3 log2Fold Change ([2]; 10 μM BT2 vs vehicle, 4 h): −1.262
- TUBB4B log2Fold Change ([2]; 10 μM BT2 vs vehicle, 4 h): −1.52
- ZYX log2Fold Change ([2]; 10 μM BT2 vs vehicle, 4 h): 1.537
- effect on FOS like 2 expression ([2]; 10 μM, 4 h): negligible effects
- effect on FOSB expression ([2]; 10 μM, 4 h): negligible effects
- increase of DUSP8 mRNA expression ([2]; 10 μM, 4 h): 14.1 fold
- increase of JUND levels ([2]; 10 μM, 4 h): 2.4 fold
- increase of netrin-1 (NTN1) ([2]; 10 μM, 4 h): 90.6 fold
- inhibition of MAF expression ([2]; 10 μM, 4 h): 2 fold
- JUN induction ([2]; 10 μM, within 4 h): 5.9 fold
